BindingDB's records for doi:10.1016/j.bmcl.2003.11.084 (Liaoning Normal University, 2004)
pIC50: −log10 of the molar value.

Key:
[1] = Inhibitory activity against the wheat germ DNA topoisomerase I
[2] = Inhibitory activity against the calf thymus DNA topoisomerase I
[3] = Inhibitory activity against the wheat germ DNA topoisomerase I; remark: listed apart in the source

pIC50 [1] | pIC50 [2] | pIC50 [3] | Structure (SMILES)
> 5.00 | 3.70 |  | C(=C\c1ccco1)/c1cc(-c2ccco2)cc(-c2cccs2)n1 [4-Furan-2-yl-2-((E)-2-furan-2-yl-vinyl)-6-thiophen-2-yl-pyridine]
 |  | 4.30 | c1coc(-c2cc(-c3cccs3)nc(-c3cccs3)c2)c1 [4-Furan-2-yl-2,6-di-thiophen-2-yl-pyridine]
 |  | 3.40 | c1coc(-c2ccnc(-c3cccs3)c2)c1 [4-Furan-2-yl-2-thiophen-2-yl-pyridine]
